Key:
Test in all cases: MIC, microdilution method in broth, in comparison with teicoplanin
Assay type in all cases: cell-based
[1] = tested on: S. epidermidis and S. haemolyticus, two species of Coagulase-Negative Staphylococci (CNS); conditions: relative to teicoplanin; Iso-Sensitest broth, inoculum about 10^5 cfu/ml, 18-24 hours at 37°C
Procedure: (§1) The antimicrobial activity, expressed as minimal inhibitory concentration (MIC), of the hexapeptide of formula (I), R = hydrogen, against selected strains of Gram-positive bacteria was determined in comparison with teicoplanin. The microdilution method in Difco Todd-Hewitt broth (Streptococci) or Oxoid Iso-Sensitest broth (Staphylococci) was used.

[2] = tested on: Staphylococci and Streptococci; conditions: relative to teicoplanin; inoculum about 10^5 cfu/ml, 18-24 hours at 37°C
Procedure: as §1

[3] = tested on: two strains of S. aureus and S. epidermidis showing low sensitivity to teicoplanin; conditions: Iso-Sensitest broth, 18-24 hours at 37°C
Procedure: as §1

aglucoteicoplanin hexapeptide
antimicrobial activity, expressed as minimal inhibitory concentration (MIC) [1]: same degree of activity | antimicrobial activity, expressed as minimal inhibitory concentration (MIC) [2]: generally less active than teicoplanin | antimicrobial activity (MIC), fold relative to teicoplanin [3]: four to sixteen times more active
